Measured values as given in publication PMC3401275 (International Journal of Pharmaceutics, 2012).

How the values were obtained:
Caco-2 cells [1] = assay: Cytotoxicity assay; assay type: cell-based, human; settings: 100µM, 48 h
[2] = cited from earlier work
Caco-2 cells [3] = assay: Cellular accumulation on Caco-2 cell monolayers; settings: 30 min incubation, Fig. 3
SMVT [4] = target: T1, SMVT (Canis lupus familiaris, UniProt A0A8I3MY61); assay type: cell-based, canine; settings: MDCK-MDR1 cells, excess biotin, Fig. 4
T1 sequence (A0A8I3MY61 1-636): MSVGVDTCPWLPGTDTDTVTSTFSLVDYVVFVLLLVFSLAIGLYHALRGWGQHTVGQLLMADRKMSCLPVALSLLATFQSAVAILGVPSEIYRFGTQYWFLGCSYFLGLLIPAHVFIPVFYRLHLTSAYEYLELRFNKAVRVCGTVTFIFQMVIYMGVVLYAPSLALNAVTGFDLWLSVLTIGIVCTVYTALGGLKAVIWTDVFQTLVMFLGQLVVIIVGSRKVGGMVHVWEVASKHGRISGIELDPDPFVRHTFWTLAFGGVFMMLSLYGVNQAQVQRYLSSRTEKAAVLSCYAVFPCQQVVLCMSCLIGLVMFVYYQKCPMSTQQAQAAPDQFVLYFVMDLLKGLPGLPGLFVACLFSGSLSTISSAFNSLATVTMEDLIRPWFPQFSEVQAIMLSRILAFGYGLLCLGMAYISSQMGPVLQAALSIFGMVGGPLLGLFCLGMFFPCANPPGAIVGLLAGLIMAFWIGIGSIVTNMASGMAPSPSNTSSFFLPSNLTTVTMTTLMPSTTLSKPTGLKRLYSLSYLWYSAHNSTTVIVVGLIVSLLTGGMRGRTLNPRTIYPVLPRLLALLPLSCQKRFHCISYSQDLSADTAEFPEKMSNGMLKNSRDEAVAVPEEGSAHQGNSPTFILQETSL

SMVT [5] = target: T1, SMVT; settings: read-out: IC50 for inhibition of [3H] biotin uptake; MDCK-MDR1 cells, 0.1–100µM, 30 min
SMVT [6] = target: T1, SMVT; settings: read-out: apparent affinity constant (Km) towards SMVT; MDCK-MDR1 cells, [3H] biotin uptake, 0.1–100µM, 30 min, Michaelis-Menten fit
MDCK-MDR1 cells = assay: Cellular accumulation on MDCK-MDR1 cell monolayers; settings: 30 min incubation, Fig. 2
SMVT [7] = target: T1, SMVT; settings: MDCK-MDR1 monolayers, 0.5µCi/ml, no inhibitor

Row | Compound | increase in the uptake compared to ACV (Caco-2 cells [3]) [times] | uptake of prodrug in the presence of unlabeled biotin (SMVT [4]) | IC50 (SMVT [5]) [µM] | Km (SMVT [6]) [µM] | further results
1 | Nc1nc2c(ncn2COCCO)c(=O)[nH]1 [ACV, 2-amino-9-((2-hydroxyethoxy)methyl)-1H-purin-6(9H)-one] | – | – | – | – | cytotoxic effect (Caco-2 cells [1]): Neither ACV nor its targeted lipid prodrugs demonstrate any cytotoxic effect; oral bioavailability ([2]; in vivo, po): 15–30%
2 | CCCCCCC(CCCCCCCCCCC(=O)OCCOCn1cnc2c(=O)[nH]c(N)nc21)OC(=O)CCCC[C@@H]1SC[C@@H]2NC(=O)N[C@@H]21 (stereo partly shown) [B-12HS-ACV, biotin-12hydroxystearicacid-acyclovir] | 8.3 | significantly lower | 8.17 ± 0.09 | 24 ± 3.2 | –
3 | Nc1nc2c(ncn2COCCOC(=O)CCCC[C@@H]2SC[C@@H]3NC(=O)N[C@@H]32)c(=O)[nH]1 [B-ACV, Biotin-ACV] | 3.5 | significantly lower | 14.84 ± 0.1 | 30.9 ± 4.19 | increase in the uptake compared to parent drug, ACV (MDCK-MDR1 cells): 6 times
4 | CC(C)[C@H](N)C(=O)OCCOCn1cnc2c(=O)[nH]c(N)nc21 [VACV, Valacyclovir] | – | – | – | – | increase of the oral bioavailability of ACV ([2]; ref Balimane et al., 1998, de Vrueh et al., Guo et al., 1999, Jacobson, 1993, Perry and Faulds, 1996, Soul-Lawton et al., 1995, Talluri et al., 2008): 3 to 5 fold
5 | [^3H] Biotin | – | – | – | – | Permeability of [3H] biotin alone (SMVT [7]): 47.4 nm/s
6 | biotin-ricinoleicacid-acyclovir [B-R-ACV] | – | significantly lower | 8.04 ± 0.07 | 20.2 ± 1.74 | –
